Measured values reported in ChEMBL document CHEMBL1201862, “PubChem BioAssay data set” (2004).
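48-hour exposure; five concentrations; linearly interpolated endpoints. The concentration for 50% growth inhibition is given as GI50.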 The source made the active and inactive calls. Cut-off read from the data, not from the text of the source: active = GI50 up to about 1.1 µM and inactive = higher. Where a SMILES comes first, the peptide text is derived from it. The star is where a group is joined. Cbz = O=C(OCc1ccccc1)*; Boc = CC(C)(C)OC(=O)*; Bn = c1ccc(C*)cc1

What was measured:
Assay in all cases: NCI anticancer screen, dose series, 48 h
[1] = test system: ACHN
[2] = test system: BT-549
[3] = test system: EKVX
[4] = test system: HCT-15
[5] = test system: HOP-62
[6] = test system: LOX IMVI
[7] = test system: MDA-MB-231
[8] = test system: NCI-H460
[9] = test system: OVCAR-5
[10] = test system: OVCAR-8
[11] = test system: RPMI-8226
[12] = test system: SF-268
[13] = test system: SF-295
[14] = test system: SK-MEL-28
[15] = test system: SK-MEL-2
[16] = test system: SK-OV-3
[17] = test system: SR
[18] = test system: SW-620
[19] = test system: M14
[20] = test system: RXF 393

In the case of O=C(NC1CCCCC1NC(c1ccccc1)(c1ccccc1)c1ccccc1)C(=O)NC1CCCCC1NC(c1ccccc1)(c1ccccc1)c1ccccc1 (configuration not stated), the GI50 [1] is reported as 92 µM (inactive), the GI50 [2] is reported as 28.1 µM (inactive) and the GI50 [3] is reported as 67.3 µM (inactive). The GI50 [4] was over 100 µM, the GI50 [5] was 27.5 µM (inactive) and the GI50 [6] was > 100 µM (inactive). The GI50 [7] was > 100 µM (inactive), the GI50 [8] was > 100 µM (inactive) and the GI50 [9] was > 100 µM (inactive). For the same molecule, the GI50 [10] was > 100 µM (inactive), the GI50 [11] was > 100 µM (inactive) and the GI50 [12] was 24 µM (inactive). For the same molecule, the GI50 [13] was > 100 µM (inactive), the GI50 [14] was > 100 µM (inactive) and the GI50 [15] was > 100 µM (inactive). The GI50 [16] was 28.6 µM (inactive), the GI50 [17] was > 100 µM (inactive) and the GI50 [18] was > 100 µM (inactive).

For Cc1cc(-c2nc3c(O)cccc3s2)ccc1N, the GI50 [1] was 17.2 µM (inactive), the GI50 [2] was 22.1 µM (inactive) and the GI50 [3] was 20.2 µM (inactive). For the same molecule, the GI50 [4] was 25.4 µM, the GI50 [5] was 25.6 µM (inactive) and the GI50 [6] was 17.3 µM (inactive). For the same molecule, the GI50 [19] was 16.7 µM (inactive), the GI50 [7] was 22.9 µM (inactive) and the GI50 [8] was 30.5 µM (inactive). For the same molecule, the GI50 [10] was 20 µM (inactive), the GI50 [11] was 45 µM (inactive) and the GI50 [20] was 67.9 µM (inactive). For the same molecule, the GI50 [12] was 21 µM (inactive), the GI50 [13] was 25.9 µM (inactive) and the GI50 [14] was 57.9 µM (inactive). The GI50 [15] was 22.7 µM (inactive), the GI50 [16] was 39.1 µM (inactive) and the GI50 [17] was 25.5 µM (inactive). For the same molecule, the GI50 [18] was 41.4 µM (inactive).

In the case of COc1ccc(SCc2cc(OCc3ccccc3)c(OCc3ccccc3)c(OCc3ccccc3)c2)cc1, the GI50 [1] is reported as 1.73 µM (inactive), the GI50 [2] is reported as 2.24 µM (inactive) and the GI50 [3] is reported as 2 µM (inactive). For the same molecule, the GI50 [4] was 1.84 µM, the GI50 [5] was 1.81 µM (inactive) and the GI50 [6] was 1.54 µM (inactive). For the same molecule, the GI50 [19] was 1.92 µM (inactive), the GI50 [7] was 1.36 µM (inactive) and the GI50 [8] was 2.38 µM (inactive). The GI50 [9] was 1.62 µM (inactive), the GI50 [10] was 1.78 µM (inactive) and the GI50 [11] was 2.84 µM (inactive). The GI50 [20] was 1.92 µM (inactive), the GI50 [12] was 1.77 µM (inactive) and the GI50 [13] was 1.87 µM (inactive). The GI50 [14] was 2.07 µM (inactive), the GI50 [16] was 1.77 µM (inactive) and the GI50 [17] was 0.493 µM (active). For the same molecule, the GI50 [18] was 1.7 µM (inactive).

With Cc1ccc(SCC(OCn2cnc3c(Cl)nc(N)nc32)[C@H](C)F)cc1 (some centres not stated) the GI50 [1] was 37.5 µM (inactive), the GI50 [2] was 52.4 µM (inactive) and the GI50 [4] was over 100 µM. The GI50 [5] was > 100 µM (inactive), the GI50 [6] was > 100 µM (inactive) and the GI50 [19] was > 100 µM (inactive). For the same molecule, the GI50 [7] was 46.7 µM (inactive), the GI50 [8] was 78.2 µM (inactive) and the GI50 [9] was > 100 µM (inactive). The GI50 [10] was 63 µM (inactive), the GI50 [11] was 36.9 µM (inactive) and the GI50 [12] was > 100 µM (inactive). For the same molecule, the GI50 [13] was 53.7 µM (inactive), the GI50 [14] was > 100 µM (inactive) and the GI50 [15] was > 100 µM (inactive). The GI50 [16] was > 100 µM (inactive), the GI50 [17] was 28.2 µM (inactive) and the GI50 [18] was > 100 µM (inactive).

CC(C)(C)OC(=O)NC(Cc1ccc(OCc2ccccc2)cc1)C(=O)NC(CCCCNC(=O)OCc1ccccc1)C(=O)O (configuration not stated) (Boc-Tyr(Bn)-Lys(Cbz)-OH; configuration not given here) was tested, and the GI50 [2] was 17.3 µM (inactive), the GI50 [3] was > 100 µM (inactive) and the GI50 [4] was over 10 µM. The GI50 [5] was 61.1 µM (inactive), the GI50 [19] was 2.72 µM (inactive) and the GI50 [7] was > 100 µM (inactive). For the same molecule, the GI50 [9] was > 100 µM (inactive), the GI50 [10] was 35.3 µM (inactive) and the GI50 [11] was 32.7 µM (inactive). For the same molecule, the GI50 [20] was 17.8 µM (inactive), the GI50 [14] was 17.4 µM (inactive) and the GI50 [15] was 28 µM (inactive). The GI50 [17] was 28.6 µM (inactive) and the GI50 [18] was 49 µM (inactive).

For CCCCC(=O)c1ccc2ccccc2c1O, the GI50 [1] was > 100 µM (inactive), the GI50 [2] was > 100 µM (inactive) and the GI50 [3] was 62.1 µM (inactive). For the same molecule, the GI50 [4] was over 100 µM, the GI50 [5] was > 100 µM (inactive) and the GI50 [6] was > 100 µM (inactive). The GI50 [19] was > 100 µM (inactive), the GI50 [7] was 66.4 µM (inactive) and the GI50 [8] was > 100 µM (inactive). For the same molecule, the GI50 [10] was > 100 µM (inactive), the GI50 [11] was 35.5 µM (inactive) and the GI50 [20] was 99.1 µM (inactive). For the same molecule, the GI50 [12] was > 100 µM (inactive), the GI50 [13] was > 100 µM (inactive) and the GI50 [14] was > 100 µM (inactive). The GI50 [15] was > 100 µM (inactive), the GI50 [16] was > 100 µM (inactive) and the GI50 [17] was 62.5 µM (inactive). The GI50 [18] was > 100 µM (inactive).
